Laboratory results reported in patent US10604555B2, “GIP derivatives and uses thereof” (priority 2018, dated 2020).
pEC50: −log10 of the molar value. *1 amine or outer side, *2 acyl side, *3 side chain or, on linkers, in order; H or OH if unused. Where a SMILES comes first, the peptide text is derived from it. Side-chain parts run from the residue outwards. [ ]: non-standard residue; d: D form. The star is where a group is joined. C18 diacid = O=C(O)CCCCCCCCCCCCCCCCC(=O)*; γGlu = O=C(O)[C@H](CCC(=O)[*:2])N[*:1]; Nle = CCCC[C@H](N)C(=O)O; Aib = CC(C)(N)C(=O)O

Molecular target: T1, human GIP receptor (Homo sapiens, UniProt P48546)
T1 construct: expressed in transfected cells; host or cells: BHK (parent line BHKTS13), BHK CRE luc2P hGIPR clone #5
T1 sequence (P48546 22-466): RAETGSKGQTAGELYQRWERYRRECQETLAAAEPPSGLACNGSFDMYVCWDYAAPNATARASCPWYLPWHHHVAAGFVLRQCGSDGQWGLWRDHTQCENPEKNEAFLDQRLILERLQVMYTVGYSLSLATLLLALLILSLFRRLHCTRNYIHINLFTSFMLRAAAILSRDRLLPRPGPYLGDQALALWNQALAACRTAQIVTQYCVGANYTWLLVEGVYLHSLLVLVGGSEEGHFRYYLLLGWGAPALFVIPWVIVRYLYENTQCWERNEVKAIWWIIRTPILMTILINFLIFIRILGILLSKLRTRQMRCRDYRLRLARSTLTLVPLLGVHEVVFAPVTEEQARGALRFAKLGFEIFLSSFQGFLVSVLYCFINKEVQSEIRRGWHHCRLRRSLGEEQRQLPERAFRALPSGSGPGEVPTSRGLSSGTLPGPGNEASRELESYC
Experiment: In vitro potency (CRE luciferase; whole cells), BHK CRE luc2P hGIPR
Type: cell-based
Settings: 0.2% HSA
Experimental: In Vitro Potency (CRE Luciferase; Whole Cells)
The in vitro potency is the measure of human GIP, GLP-1 or glucagon receptor activation, respectively, in a whole cell assay.
In vitro potency was determined by measuring the response of the human GIP, GLP-1 or glucagon receptor in a reporter gene assay in individual cell lines. […] When the respective receptor is activated it results in the production of cAMP, which in turn results in the luciferase protein being expressed. When assay incubation is completed the luciferase substrate (luciferin) is added and the enzyme converts luciferin to oxyluciferin to produce bioluminescence. The luminescence is measured as the readout for the assay.
The cells were derived from a clone containing the CRE luciferase element and were established by further transfection with the respective receptor to obtain the current clone.
The cells were cultured at 5% CO2 in Cell Culture Medium. They were aliquoted and stored in liquid nitrogen. The cells were kept in passage and were seeded out the day before each assay.
The Assay Buffer consisted of 1% ovalbumin and 0.1% Pluronic F-68 in Assay Medium with the addition of human serum albumin at twice the indicated concentrations.
1) Cells were plated at 5000 cells/well and incubated overnight.
2) Cells were washed three times in PBS.
3) Assay Medium (50 μl aliquot) with or without serum albumin was added to each well in the assay plate.
4) Stocks of the test compounds and reference compounds were diluted to a concentration of 0.2 μM in Assay Buffer. […] 8) The cells were washed three times with PBS plus some liquid in each well. 9) A 100 μl aliquot of steadylite plus reagent was added to each well of the assay plate (reagent was light sensitive). 10) Each assay plate was covered with aluminum foil to protect it from light and shaken for 30 min at room temperature. 11) Each assay plate was read in a microtiter plate reader. Calculations and Results
The data from the microtiter plate reader was transferred to GraphPad Prism software. The software performs a non-linear regression (log(agonist) vs response).
A minimum of two replicates was measured for each sample. The reported values are averages of the replicates.

Row | pEC50 | Structure (SMILES)
1 | 10.30 | CCCC[C@H](NC(=O)[C@H](C)NC(=O)[C@@H](NC(=O)[C@H](CO)NC(=O)[C@H](Cc1ccc(O)cc1)NC(=O)[C@H](CC(=O)O)NC(=O)[C@H](CO)NC(=O)[C@@H](NC(=O)[C@H](Cc1ccccc1)NC(=O)[C@@H](NC(=O)CNC(=O)[C@H](CCC(=O)O)NC(=O)C(C)(C)NC(=O)[C@@H](N)Cc1ccc(O)cc1)[C@@H](C)O)[C@@H](C)CC)[C@@H](C)CC)C(=O)N[C@@H](CC(=O)O)C(=O)N[C@@H](CCCCN)C(=O)N[C@H](C(=O)N[C@@H](Cc1c[nH]cn1)C(=O)N[C@@H](CCC(N)=O)C(=O)N[C@@H](CCC(N)=O)C(=O)N[C@@H](CC(=O)O)C(=O)N[C@@H](Cc1ccccc1)C(=O)N[C@H](C(=O)N[C@@H](CCCCNC(=O)CC[C@H](NC(=O)CC[C@H](NC(=O)CC[C@H](NC(=O)CCCCCCCCCCCCCCCCC(=O)O)C(=O)O)C(=O)O)C(=O)O)C(=O)N[C@@H](Cc1c[nH]c2ccccc12)C(=O)N[C@@H](CC(C)C)C(=O)N[C@@H](CC(C)C)C(=O)N[C@@H](C)C(=O)N[C@@H](CCC(N)=O)C(=O)N[C@@H](CCCCN)C(=O)NCC(=O)O)C(C)C)[C@@H](C)CC [Compound 2, N{Epsilon-24}-[(4S)-4-carboxy-4-[[(4S)-4-carboxy-4-[[(4S)-4-carboxy-4-(17-carboxyheptadecanoylamino)butanoyl]amino]butanoyl]amino]butanoyl]-[Aib2,Nle14,Lys24]-hGIP(1-31)] (H-Y[Aib]EGTFISDYSIA[Nle]DKIHQQDFVK([γGlu-γGlu-γGlu-C18 diacid])WLLAQKG-OH)
2 | 10.70 | CCCC[C@H](NC(=O)[C@H](C)NC(=O)[C@@H](NC(=O)[C@H](CO)NC(=O)[C@H](Cc1ccc(O)cc1)NC(=O)[C@H](CC(=O)O)NC(=O)[C@H](CO)NC(=O)[C@@H](NC(=O)[C@H](Cc1ccccc1)NC(=O)[C@@H](NC(=O)CNC(=O)[C@H](CCC(=O)O)NC(=O)C(C)(C)NC(=O)[C@@H](N)Cc1ccc(O)cc1)[C@@H](C)O)[C@@H](C)CC)[C@@H](C)CC)C(=O)N[C@@H](CC(=O)O)C(=O)N[C@@H](CCCCN)C(=O)N[C@H](C(=O)N[C@@H](CCCNC(=N)N)C(=O)N[C@@H](CCC(N)=O)C(=O)N[C@@H](CCC(N)=O)C(=O)N[C@@H](CC(=O)O)C(=O)N[C@@H](Cc1ccccc1)C(=O)N[C@H](C(=O)N[C@@H](CCCCNC(=O)CC[C@H](NC(=O)CC[C@H](NC(=O)CC[C@H](NC(=O)CCCCCCCCCCCCCCCCC(=O)O)C(=O)O)C(=O)O)C(=O)O)C(=O)N[C@@H](Cc1c[nH]c2ccccc12)C(=O)N[C@@H](CC(C)C)C(=O)N[C@@H](CC(C)C)C(=O)N[C@@H](C)C(=O)N[C@@H](CCC(N)=O)C(=O)N[C@@H](CCCCN)C(=O)NCC(=O)N[C@@H](CCCCN)C(=O)N[C@@H](CCC(=O)O)C(=O)N[C@@H](CC(N)=O)C(=O)N[C@@H](CC(=O)O)C(=O)N[C@@H](Cc1c[nH]c2ccccc12)C(=O)N[C@@H](CCCCN)C(=O)N[C@@H](Cc1c[nH]cn1)C(=O)N[C@@H](CC(N)=O)C(=O)N[C@H](C(=O)N[C@H](C(=O)N[C@@H](CCC(N)=O)C(=O)O)[C@@H](C)O)[C@@H](C)CC)C(C)C)[C@@H](C)CC [Compound 34, N{Epsilon-24}-[(4S)-4-carboxy-4-[[(4S)-4-carboxy-4-[[(4S)-4-carboxy-4-(17-carboxyheptadecanoylamino)butanoyl]amino]butanoyl]amino]butanoyl]-[Aib2,Nle14,Arg18,Lys24,Glu33]-hGIP]
3 | 10.14 | CCCC[C@H](NC(=O)[C@H](C)NC(=O)[C@@H](NC(=O)[C@H](CO)NC(=O)[C@H](Cc1ccc(O)cc1)NC(=O)[C@H](CC(=O)O)NC(=O)[C@H](CO)NC(=O)[C@@H](NC(=O)[C@H](Cc1ccccc1)NC(=O)[C@@H](NC(=O)CNC(=O)[C@H](CCC(=O)O)NC(=O)C(C)(C)NC(=O)[C@@H](N)Cc1ccc(O)cc1)[C@@H](C)O)[C@@H](C)CC)[C@@H](C)CC)C(=O)N[C@@H](CC(=O)O)C(=O)N[C@@H](C)C(=O)N[C@H](C(=O)N[C@@H](CCCNC(=N)N)C(=O)N[C@@H](CCC(N)=O)C(=O)N[C@@H](CCC(N)=O)C(=O)N[C@@H](CC(=O)O)C(=O)N[C@@H](Cc1ccccc1)C(=O)N[C@H](C(=O)N[C@@H](CCCCNC(=O)CC[C@H](NC(=O)CC[C@H](NC(=O)CC[C@H](NC(=O)CCCCCCCCCCCCCCCCC(=O)O)C(=O)O)C(=O)O)C(=O)O)C(=O)N[C@@H](Cc1c[nH]c2ccccc12)C(=O)N[C@@H](CC(C)C)C(=O)N[C@@H](CC(C)C)C(=O)N[C@@H](C)C(=O)N[C@@H](CCC(N)=O)C(=O)N[C@@H](CCCCN)C(=O)NCC(=O)O)C(C)C)[C@@H](C)CC [Compound 13, N{Epsilon-24}-[(4S)-4-carboxy-4-[[(4S)-4-carboxy-4-[[(4S)-4-carboxy-4-(17-carboxyheptadecanoylamino)butanoyl]amino]butanoyl]amino]butanoyl]-[Aib2,Nle14,Ala16,Arg18,Lys24]-hGIP(1-31)] (H-Y[Aib]EGTFISDYSIA[Nle]DAIRQQDFVK([γGlu-γGlu-γGlu-C18 diacid])WLLAQKG-OH; N-terminus and C-terminus assumed)
4 | 9.26 | CCCC[C@H](NC(=O)[C@H](C)NC(=O)[C@@H](NC(=O)[C@H](CO)NC(=O)[C@H](Cc1ccc(O)cc1)NC(=O)[C@H](CC(=O)O)NC(=O)[C@H](CO)NC(=O)[C@@H](NC(=O)[C@H](Cc1ccccc1)NC(=O)[C@@H](NC(=O)CNC(=O)[C@H](CCC(=O)O)NC(=O)[C@H](C)NC(=O)[C@H](Cc1ccc(O)cc1)NC(C)=O)[C@@H](C)O)[C@@H](C)CC)[C@@H](C)CC)C(=O)N[C@@H](CC(=O)O)C(=O)N[C@@H](CCCCN)C(=O)N[C@H](C(=O)N[C@@H](CCCNC(=N)N)C(=O)N[C@@H](CCC(N)=O)C(=O)N[C@@H](CCC(N)=O)C(=O)N[C@@H](CC(=O)O)C(=O)N[C@@H](Cc1ccccc1)C(=O)N[C@H](C(=O)N[C@@H](CCCCNC(=O)CC[C@H](NC(=O)CC[C@H](NC(=O)CC[C@H](NC(=O)CCCCCCCCCCCCCCCCC(=O)O)C(=O)O)C(=O)O)C(=O)O)C(=O)N[C@@H](Cc1c[nH]c2ccccc12)C(=O)N[C@@H](CC(C)C)C(=O)N[C@@H](CC(C)C)C(=O)N[C@@H](C)C(=O)N[C@@H](CCC(N)=O)C(=O)N[C@@H](CCCCN)C(=O)NCC(=O)O)C(C)C)[C@@H](C)CC [Compound 18, N{1}-acetyl,N{Epsilon-24}-[(4S)-4-carboxy-4-[[(4S)-4-carboxy-4-[[(4S)-4-carboxy-4-(17-carboxyheptadecanoylamino)butanoyl]amino]butanoyl]amino]butanoyl]-[Nle14,Arg18,Lys24]-hGIP(1-31)]
5 | 9.80 | CCCC[C@H](NC(=O)[C@H](C)NC(=O)[C@@H](NC(=O)[C@H](CO)NC(=O)[C@H](Cc1ccc(O)cc1)NC(=O)[C@H](CC(=O)O)NC(=O)[C@H](CO)NC(=O)[C@@H](NC(=O)[C@H](Cc1ccccc1)NC(=O)[C@@H](NC(=O)CNC(=O)[C@H](CCC(=O)O)NC(=O)C(C)(C)NC(=O)[C@@H](N)Cc1ccc(O)cc1)[C@@H](C)O)[C@@H](C)CC)[C@@H](C)CC)C(=O)N[C@@H](CC(=O)O)C(=O)N[C@@H](CCCCN)C(=O)N[C@H](C(=O)N[C@@H](Cc1c[nH]cn1)C(=O)N[C@@H](CCC(N)=O)C(=O)N[C@@H](CCC(=O)O)C(=O)N[C@@H](CC(=O)O)C(=O)N[C@@H](Cc1ccccc1)C(=O)N[C@H](C(=O)N[C@@H](CCCCNC(=O)CC[C@H](NC(=O)CC[C@H](NC(=O)CC[C@H](NC(=O)CC[C@H](NC(=O)CCCCCCCCCCCCCCCCC(=O)O)C(=O)O)C(=O)O)C(=O)O)C(=O)O)C(=O)N[C@@H](Cc1c[nH]c2ccccc12)C(=O)N[C@@H](CC(C)C)C(=O)N[C@@H](CC(C)C)C(=O)N[C@@H](C)C(=O)N[C@@H](CCC(N)=O)C(=O)N[C@@H](CCCCN)C(=O)NCC(=O)O)C(C)C)[C@@H](C)CC [Compound 20, N{Epsilon-24}-[(4S)-4-carboxy-4-[[(4S)-4-carboxy-4-[[(4S)-4-carboxy-4-[[(4S)-4-carboxy-4-(17-carboxyheptadecanoylamino)butanoyl]amino]butanoyl]amino]butanoyl]-amino]butanoyl]-[Aib2,Nle14,Glu20,Lys24]-hGIP(1-31)] (H-Y[Aib]EGTFISDYSIA[Nle]DKIHQEDFVK([γGlu-γGlu-γGlu-γGlu-C18 diacid])WLLAQKG-OH; N-terminus and C-terminus assumed)
